Measurements from patent US7888079B2, “Nε-acyl-L-lysine-specific aminoacylase” (Ajinomoto Co., Inc., priority 2005, dated 2011).
Read-outs that look alike come from different tables or passages of the source. One block for each compound: values may come before it.

Assays:
[1] = system: aminoacylase of the present invention (Nε-acyl-L-lysine-specific aminoacylase); experiment: Effect of various inhibitors on the hydrolyzing activity of the aminoacylase; type: biochemical, Streptomyces mobaraensis; conditions: hydrolysis activity where nothing was added = 100
Method: The activity of the enzyme of the present invention can be measured based on a method of measuring Nε-acetyl-L-lysine hydrolysis activity. For example, the activity of the enzyme of the present invention may be measured by incubating the enzyme with a defined concentration of Nε-acetyl-L-lysine as a substrate for 30 minutes at 37° C. (50 mM Tris-HCl buffer, pH 8.0), and assaying the released L-lysine. 1 U (unit) of the enzyme of the present invention is defined as the amount of the enzyme required to hydrolyze 1 micromole of Nε-acetyl-L-lysine per hour when incubated for 30 minutes at 37° C. (50 mM Tris-HCl buffer, pH 8.0) with 4 mM Nε-acetyl-L-lysine as the substrate, and the released L-lysine was assayed by the acidic ninhydrin method.
The activity of the enzyme of the present invention was measured by incubating the enzyme (50 mM Tris-HCl buffer, pH 8.0) for 30 minutes at 37° C. with a defined concentration of Nε-acetyl-L-lysine as the substrate, and assaying the released L-lysine. 1 U (unit) of the enzyme of the present invention is defined as the amount of the enzyme required to hydrolyze 1 micromole of Nε-acetyl-L-lysine per hour at 37° C. for 30 minutes in 50 mM Tris-HCl buffer, pH 8.0 with 4 mM of Nε-acetyl-L-lysine as the substrate, and the released L-lysine was assayed by acidic ninhydrin method.
The effects of various inhibitors on hydrolysis activity were compared by the measurement methods described above using a purified enzyme obtained as in Example 2. In Table 2, the enzyme activity is presented as a relative value (%) given 100 as hydrolysis activity where nothing was added.

[2] = system: aminoacylase of the present invention (Nε-acyl-L-lysine-specific aminoacylase); experiment: Effects of metal ions on hydrolysis activity of enzyme dialyzed against 0-phenanthroline solution; type: biochemical, Streptomyces mobaraensis; conditions: final concentration 0.1 mM
[3] = system: enzyme of the present invention (aminoacylase); experiment: Reactivity of the enzyme on various N-acetyl-L-amino acids (substrate specificity); type: biochemical, Streptomyces mobaraensis; conditions: for Specific activity (relative activity): relative to Nε-acetyl-L-Lys = 100%; for Specific activity: 1-hour reaction, 50 mM Tris-HCl buffer pH 8.2, 37° C., ND: below detection limit
Method: (§1) The reactivity of the enzyme of the present invention on various N-acetyl-L-amino acids (final concentration 4 mM) was studied to investigate substrate specificity. In Tables 4 and 5 below, the amount (micro mole) of substrate (acetyl-L-amino acid) hydrolyzed per 1 mg of enzyme protein in a 1-hour reaction in 50 mM Tris-HCl buffer (pH 8.2) at 37° C. is given as specific activity.

S. mobaraensis enzyme = experiment: Hydrolysis activity on Nε-acyl-L-lysines with various acyl groups, S. mobaraensis enzyme; type: biochemical, Streptomyces mobaraensis; conditions: for Specific activity, S. mobaraensis enzyme: 1-hour reaction, 50 mM Tris-HCl buffer pH 8.2, 37° C.
Method: as §1
(§2) Substrate specificity was investigated based on hydrolysis activity on Nε-acyl-L-lysines with various acyl groups.

A. pestifer enzyme [4] = conditions: values marked * from Chibata et al. (1970); cited from earlier work
A. pestifer enzyme [5] = experiment: Hydrolysis activity on Nε-acyl-L-lysines with various acyl groups, A. pestifer enzyme; type: biochemical, Achromobacter pestifer
From the text: as §2

[6] = hydrolysis activity with nothing added = 100

Structure (SMILES): c1cnc2c(c1)ccc1cccnc12 [0-phenanthroline]
- Relative activity (%) ([1]; added concentration 1 mM): 10.3%

Structure (SMILES): [Ca+2].[Cl-].[Cl-] [CaCl2]
- Relative activity (%) [2, 6]: 110.3%

Structure (SMILES): [Cl-].[Cl-].[Co+2] [CoCl2]
- Relative activity (%) [2]: 140.8%

Structure (SMILES): O=C(O)CN(CCN(CC(=O)O)CC(=O)O)CC(=O)O [EDTA]
- Relative activity (%) ([1]; added concentration 1 mM): 74.6%

Structure (SMILES): NC(=O)CI [Iodoacetamide]
- Relative activity (%) ([1]; added concentration 1 mM): 83.1%

Structure (SMILES): CC(=O)NCCCC[C@H](N)C(=O)O [Nε-acetyl-L-Lys]
- Specific activity, A. pestifer enzyme (A. pestifer enzyme [4]): 2,700* μmol/mg
- Specific activity, S. mobaraensis enzyme (S. mobaraensis enzyme): 3,370 μmol/mg
- Specific activity (relative activity) [3]: 100%
- hydrolysis activity on N-acetyl-L-amino acids (in words) ([3]; substrate 4 mM): strong hydrolysis activity
- Specific activity ([3]; substrate 4 mM): 3370 µmol/mg

Structure (SMILES): N[C@@H](CCCCNC(=O)c1ccccc1)C(=O)O [Nε-benzoyl-L-Lys]
- Specific activity, A. pestifer enzyme (A. pestifer enzyme [4]): 15,000* μmol/mg
- Specific activity, S. mobaraensis enzyme (S. mobaraensis enzyme): 1,380 μmol/mg

Structure (SMILES): N[C@@H](CCCCNC(=O)CCl)C(=O)O [Nε-chloroacetyl-L-lys]
- Specific activity, A. pestifer enzyme (A. pestifer enzyme [4]): 5,300* μmol/mg
- Specific activity, S. mobaraensis enzyme (S. mobaraensis enzyme): 1,030 μmol/mg

Structure (SMILES): CCCCCCCC(=O)NCCCC[C@H](N)C(=O)O [Nε-octanoyl-L-Lys]
- Specific activity, A. pestifer enzyme (A. pestifer enzyme [4]): 12,500* μmol/mg
- Specific activity, S. mobaraensis enzyme (S. mobaraensis enzyme): 570 µmol/mg

Structure (SMILES): O=C(O)c1cc[c]([Hg][Cl])cc1 [PCMB]
- Relative activity (%) ([1]; added concentration 1 mM): 86.1%

Results, then the compound that gave them:

- Relative activity (%) [2, 6]: 67.2%
Structure (SMILES): O=S(=O)([O-])[O-].[Cu+2] [CuSO4]

- Relative activity (%) ([1]; added concentration 1 mM): 64.7%
Structure (SMILES): O[C@@H](CS)[C@@H](O)CS [DTT]

- Relative activity (%) [2, 6]: 85.3%
Structure (SMILES): O=S(=O)([O-])[O-].[Fe+2] [FeSO4]

- Relative activity (%) ([1]; added concentration 1 mM): 80.0%
Structure (SMILES): N[C@@H](CCC(=O)N[C@@H](CS)C(=O)NCC(=O)O)C(=O)O [GSH]

- Relative activity (%) [2, 6]: 110.2%
Structure (SMILES): [Cl-].[K+] [KCl]

- Relative activity (%) ([1]; added concentration 1 mM): 77.6%
Structure (SMILES): N[C@@H](CS)C(=O)O [L-cysteine]

- Relative activity (%) [2, 6]: 121.1%
Structure (SMILES): O=S(=O)([O-])[O-].[Mg+2] [MgSO4]

- Relative activity (%) [2, 6]: 114.1%
Structure (SMILES): O=S(=O)([O-])[O-].[Mn+2] [MnSO4]

- Specific activity (relative activity) [3]: 2.1%
- Specific activity ([3]; substrate 4 mM): 70 µmol/mg
Structure (SMILES): CC(=O)N[C@@H](CCCCN)C(=O)O [Nα-acetyl-L-Lys]

- hydrolysis activity of the enzyme of the present invention (in words) (S. mobaraensis enzyme): no hydrolysis activity
- Specific activity, S. mobaraensis enzyme (S. mobaraensis enzyme): 0 µmol/mg
Structure (SMILES): CCCCCCCCCCCC(=O)N[C@@H](CCCCN)C(=O)O [Nα-lauroyl-L-Lys]

- Specific activity, S. mobaraensis enzyme (S. mobaraensis enzyme): 28 µmol/mg
- hydrolysis activity of the enzyme from A. pestifer (in words) (A. pestifer enzyme [5]): very little hydrolysis activity
- Specific activity, A. pestifer enzyme (A. pestifer enzyme [5]; value without literature mark): 0.4 µmol/mg
Structure (SMILES): CCCCCCCCCCCC(=O)NCCCC[C@H](N)C(=O)O [Nε-lauroyl-L-Lys]

- Relative activity (%) [2, 6]: 103.3%
Structure (SMILES): O=S(=O)([O-])[O-].[Zn+2] [ZnSO4]

- Relative activity (%) ([1]; added concentration 10 mM): 87.5%
Structure (SMILES): OCCS [β-mercaptoethanol]
